According to US20250213649A1, “PEPTIDE HAVING ANTI-INFLAMMATORY AND ANTI-FIBROTIC ACTIVITIES AND USE THEREOF” (CAREGEN CO., LTD., priority 2022, published 2025):

Key:
[1] = test system: MRC-5 cells; test: Inhibition of fibrosis gene expression induced by TGF-β1, RT-PCR, MRC-5 cells; format: cell-based; conditions: 5 ng/ml TGF-β1, peptide 10, 50, 100, 500 μM, 3 hours, RT-PCR (FIG. 7)
Method: MRC-5 cells (lung fibroblast cells) were seeded at 2×10^5 cells/well in a 12-well plate and used in the experiment. After culturing for 1 day with a culture medium containing 10% FBS, the culture medium was replaced with a culture medium without containing FBS to induce starvation for 4 hours. Cells of a normal group without being treated with any substances, a group treated with 5 ng/ml of TGF-β1 (negative control group), groups treated with 5 ng/ml of TGF-β1 and the peptide of Production Example 1 (10, 50, 100, 500 μM), and a group treated with 5 μg/ml of LPS and 10 μM of Dexamethasone (DEX) (positive control group) were treated with the above-described active substances and drugs, and then RNA was extracted after 3 hours to carry out RT-PCR. RNA was extracted from MRC-5 cells using an easy-BLUE™ Total RNA extraction kit (Qiagen, Germany). The extracted RNA was converted into cDNA using RT-PCR premix (iNtRON Biotechnology, Seongnam, Korea). After preparing a reaction mixture with PCR premix (iNtRON Biotechnology, Seongnam, Korea) and primers for each gene, PCR was carried out using a PCR machine (Eppendorf, Germany). Next, the mRNA expression pattern was determined by agarose gel electrophoresis.

[2] = test system: A549 cells; test: Inhibition of LPS-induced inflammatory cytokine gene expression, RT-PCR, A549 cells; format: cell-based, human; conditions: 5 μg/ml LPS, peptide 10, 50, 100, 500 μM, 3 hours, RT-PCR (FIG. 2)
Method: A549 cells (human alveolar basal epithelial cells) were seeded at 3×10^5 cells/well in a 6-well plate and used in the experiment. After culturing for 1 day with a culture medium containing 10% FBS, the culture medium was replaced with a culture medium without containing FBS to induce starvation for 4 hours. A normal group without being treated with any substances, a group treated with 5 μg/ml of LPS (Sigma Aldrich) (negative control group), groups treated with 5 μg/ml of LPS and the peptide of Production Example 1 (10, 50, 100, 500 μM), and a group treated with 5 μg/ml of LPS and 10 μM of Dexamethasone (DEX) (positive control group) were treated with active substances and drugs respectively, and then RNA was extracted after 3 hours to carry out RT-PCR. RNA was extracted from the A549 cells in the above-described treatment group using an easy-BLUE™ Total RNA extraction kit (Qiagen, Germany). The extracted RNA was converted into cDNA with RT-PCR premix (iNtRON Biotechnology, Seongnam, Korea). After preparing a reaction mixture with PCR premix (iNtRON Biotechnology, Seongnam, Korea) and primers for each gene, PCR was carried out using a PCR machine (Eppendorf, Germany). Next, the mRNA expression pattern was determined by agarose gel electrophoresis. The base sequences of the primers used in the experiment are listed in [Table 2] below.

[3] = test system: A549 cells; test: Western blotting of LPS-induced inflammatory cytokine/signaling proteins, A549 cells; format: cell-based, human; conditions: LPS 5 μg/ml, peptide 10, 50, 100, 500 μM, 24 hours, Western blot (FIG. 4a, 4b)
Method: A549 cells (human alveolar basal epithelial cells) were seeded at 3×10^5 cells/well in a 6-well plate and used in the experiment. After culturing for 1 day with a culture medium containing 10% FBS, the culture medium was replaced with a culture medium without containing FBS to induce starvation for 4 hours. Cells of a normal group without being treated with any substances, a group treated with LPS (5 μg/ml) (Sigma Aldrich) (negative control group), groups treated with LPS (5 μg/ml) and the peptide of Production Example 1 (10, 50, 100, 500 μM), and a group treated with LPS (5 μg/ml) and 10 μM of Dexamethasone (DEX) (positive control group) were treated with active substances and drugs respectively and then cultured for 24 hours. The cultured cells of each treatment group and control group were lysed by adding a lysis buffer, and then centrifugation was carried out at 4° C. at 12,000 rpm for 30 minutes to obtain proteins, which were subsequently quantified using a BCA Protein Assay kit (Sigma). The proteins were subjected to SDS-PAGE (sodium dodecyl sulfate-polyacrylamide gel electrophoresis) and then subjected to electrotransfer to a membrane. The membrane to which the proteins were attached was treated with 5% skim milk for blocking and then subjected to a reaction with a primary antibody overnight at 4° C. After washing with PBS-T, the membrane was subjected to a reaction with a secondary antibody at room temperature for 1 hour, washed again with PBS-T, and then visualized by a Western detection reagent (Elpis Biotech, Daejeon, Korea) using Gel Doc (Bio-Rad, Hercules, CA, USA). The antibodies used in the experiment are as follows. An Anti-IL-1β antibody: (Cell signaling technology (CST), USA), an anti-IL-6 antibody: (Santa Cruz Biotechnology, USA), an anti-COX2 antibody: (Santa Cruz Biotechnology, USA), an anti-Phospho-PI3K antibody: (Cell signaling technology (CST), USA), an anti-Phospho-AKT antibody: (Cell signaling technology (CST), USA), an anti-Phospho-ERK antibody: (Cell signaling technology (CST), USA), and an anti-β-Actin antibody: (Santa Cruz Biotechnology, USA).

[4] = test system: BALB/c mice; test: LPS-induced acute lung inflammation model, ELISA of pro-inflammatory proteins in BALF; format: in vivo; conditions: BALB/c female mice, LPS 10 μg intranasal, peptide 0.5 mg, 1 mg intranasal, 24 hours (FIG. 11a-11d)
Method: BALB/c mice (Female/7W) were used in animal experiments, and an acute lung inflammation model was established by injection of LPS. As shown in [Table 5] below, 7-week-old BALB/c female mice were divided into 5 groups of 5 mice each, and then the experiment was carried out. On the 1st day, LPS (10 μg/50 μl/mouse) was administered intranasally to the G2 to G5 groups. 1 hour after LPS administration, the G3 and G4 groups were subjected to intranasal administration with the peptide of Production Example 1 (0.5 mg, 1 mg), and the G5 positive control group was subjected to intraperitoneal administration with Dexamethasone (100 μg). 24 hours after the administration of the active substance and the drug, the mice were sacrificed to obtain the bronchoalveolar lavage fluid and the lung tissue, which were used in the next analysis.
The collected BALF was subjected to the ELISA analysis of pro-inflammatory proteins. The supernatant obtained by centrifuging the collected BALF at 3,000 rpm for 10 minutes was subjected to analysis using a TNF-α Quantikine ELISA kit (R&D systems), an IL-1β Quantikine ELISA kit (R&D systems), an IL-6 Quantikine ELISA kit (R&D systems), and a Myeloperoxidase (MPO) Quantikine ELISA Kit (R&D systems) according to the instructions for use, and then the absorbance was measured at 450 nm using a microplate reader.

Sequence: KYLLVHRPYYRR [peptide of Production Example 1]
- expression of Collagen 1A1 gene [1]: decreased the expression of genes in a concentration-dependent manner
- expression of Fibronectin 1 gene [1]: decreased the expression of genes in a concentration-dependent manner
- expression of Tenascin C gene [1]: decreased the expression of genes in a concentration-dependent manner
- expression of α-SMA gene [1]: decreased the expression of genes in a concentration-dependent manner
- gene expression of COX-2 [2]: decreases in a concentration-dependent manner
- gene expression of IL-1β [2]: decreases in a concentration-dependent manner
- gene expression of IL-6 [2]: decreases in a concentration-dependent manner
- gene expression of IL-8 [2]: decreases in a concentration-dependent manner
- gene expression of TNF-α [2]: decreases in a concentration-dependent manner
- expression of COX2 (protein) [3]: decreased the expression levels of proteins in a concentration-dependent manner
- expression of IL-1β (protein) [3]: decreased the expression levels of proteins in a concentration-dependent manner
- expression of IL-6 (protein) [3]: decreased the expression levels of proteins in a concentration-dependent manner
- expression of Phospho-AKT [3]: decreased the expression levels of proteins in a concentration-dependent manner
- expression of Phospho-ERK [3]: decreased the expression levels of proteins in a concentration-dependent manner
- expression of Phospho-PI3K [3]: decreased the expression levels of proteins in a concentration-dependent manner
- expression level of IL-1β in BALF (ELISA) [4]: reduced the increased expression levels of the cytokines in a concentration-dependent manner
- expression level of IL-6 in BALF (ELISA) [4]: reduced the increased expression levels of the cytokines in a concentration-dependent manner
- expression level of Myeloperoxidase (MPO) in BALF (ELISA) [4]: reduced the increased expression levels of the cytokines in a concentration-dependent manner
- expression level of TNF-α in BALF (ELISA) [4]: reduced the increased expression levels of the cytokines in a concentration-dependent manner
